Columns and labels:
[1] = target: Tyrosine-protein kinase JAK2 (Homo sapiens, UniProt O60674); experiment: (§1) In Vitro Assays for Determining the Inhibition of Janus Kinases: The in vitro inhibition of recombinant human JAKs was determined as follow.Compounds were tested in LANTHASCREEN™ time-resolved fluorescence energy transfer (TR-FRET) enzymatic assays from Invitrogen. The human Janus kinase 1 (JAK1) used in the assay is the recombinant JAK1 catalytic domain (amino acids 866-1154) expressed and purified from insect cells (Invitrogen, Cat. No. PV4774). The human Janus kinase 2 (JAK2) used in the assay is the recombinant JAK2 catalytic domain (amino acids 808-1132) expressed and purified from insect cells (Invitrogen, Cat. No. PV4210). The human Janus kinase 3 (JAK3) used in the assay is the recombinant JAK3 catalytic domain (amino acids 781-1124) expressed and purified from insect cells (Invitrogen, Cat. No. PV3855). The human tyrosine kinase 2 (TYK2) used in the assay is the recombinant TYK2 catalytic domain (amino acids 833-1187) expressed and purified from insect cells (Invitrogen, Cat. No. PV4790). The substrate is a recombinant STAT1 expressed as a fusion with GFP (Green Fluorescent Protein) to act as a physiological substrate (Invitrogen, Cat. No. PV5211).Test compounds were prepared and diluted in DMSO in 3-fold serial dilutions for 10 doses to 100× of the final testing concentrations. The compounds were then further diluted to 4× by the kinase reaction buffer (Invitrogen, Cat. No. PV3189). The enzymatic reaction for compound testing was performed in a white 384-well polypropylene plate (Packard, Cat. No. 6005214) with a total reaction volume of 10 μL containing 440 ng/mL JAK1, 11 ng/mL JAK2, 400 ng/mL JAK3, or 200 ng/mL TYK2, 100 nM substrate, and 1 mM ATP. The assay started with loading 2.5 μL of JAK1, JAK2, JAK3, or TYK2 diluted in the kinase reaction buffer to wells, followed by addition of an equal volume of 4× compounds for 15-min incubation at room temperature for pre-treatment. The enzymatic reaction was initiated by addition of 5 μL of a mixture of the substrate and ATP prepared in the kinase reaction buffer. […]
[2] = target: Tyrosine-protein kinase JAK1 (Homo sapiens, UniProt P23458); experiment: as §1
[3] = target: Non-receptor tyrosine-protein kinase TYK2 (Homo sapiens, UniProt P29597); experiment: as §1

Measured: IC50

Tyrosine-protein kinase JAK1, sequence (P23458 whole entry): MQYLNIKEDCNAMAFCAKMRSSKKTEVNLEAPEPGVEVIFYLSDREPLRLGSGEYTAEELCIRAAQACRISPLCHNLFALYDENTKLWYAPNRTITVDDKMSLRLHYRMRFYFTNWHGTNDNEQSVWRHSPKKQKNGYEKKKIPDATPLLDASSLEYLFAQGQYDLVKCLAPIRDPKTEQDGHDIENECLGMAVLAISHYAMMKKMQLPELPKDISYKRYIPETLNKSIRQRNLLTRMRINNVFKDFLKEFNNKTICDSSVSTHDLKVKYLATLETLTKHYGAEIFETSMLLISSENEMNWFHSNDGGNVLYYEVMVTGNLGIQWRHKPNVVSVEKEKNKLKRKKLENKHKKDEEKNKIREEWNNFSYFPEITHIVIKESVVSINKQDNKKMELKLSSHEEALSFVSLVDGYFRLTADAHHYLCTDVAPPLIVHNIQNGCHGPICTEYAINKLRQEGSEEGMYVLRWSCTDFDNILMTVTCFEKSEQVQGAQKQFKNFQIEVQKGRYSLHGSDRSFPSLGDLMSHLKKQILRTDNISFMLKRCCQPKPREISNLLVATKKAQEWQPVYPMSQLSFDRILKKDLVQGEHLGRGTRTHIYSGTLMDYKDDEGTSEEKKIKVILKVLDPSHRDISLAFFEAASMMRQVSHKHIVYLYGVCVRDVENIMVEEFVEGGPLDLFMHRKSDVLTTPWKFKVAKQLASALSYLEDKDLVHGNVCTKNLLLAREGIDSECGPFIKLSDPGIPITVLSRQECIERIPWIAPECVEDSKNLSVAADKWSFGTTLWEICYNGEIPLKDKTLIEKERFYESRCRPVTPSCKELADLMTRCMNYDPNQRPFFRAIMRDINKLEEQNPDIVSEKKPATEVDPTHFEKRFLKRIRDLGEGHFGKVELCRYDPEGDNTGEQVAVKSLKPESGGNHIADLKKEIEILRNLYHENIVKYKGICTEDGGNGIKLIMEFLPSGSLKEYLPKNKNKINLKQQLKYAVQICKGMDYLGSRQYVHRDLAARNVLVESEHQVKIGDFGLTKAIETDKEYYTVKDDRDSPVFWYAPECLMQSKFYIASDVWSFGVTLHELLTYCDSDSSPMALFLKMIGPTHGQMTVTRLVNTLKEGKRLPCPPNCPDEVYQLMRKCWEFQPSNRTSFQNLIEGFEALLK
Non-receptor tyrosine-protein kinase TYK2, sequence (P29597 whole entry): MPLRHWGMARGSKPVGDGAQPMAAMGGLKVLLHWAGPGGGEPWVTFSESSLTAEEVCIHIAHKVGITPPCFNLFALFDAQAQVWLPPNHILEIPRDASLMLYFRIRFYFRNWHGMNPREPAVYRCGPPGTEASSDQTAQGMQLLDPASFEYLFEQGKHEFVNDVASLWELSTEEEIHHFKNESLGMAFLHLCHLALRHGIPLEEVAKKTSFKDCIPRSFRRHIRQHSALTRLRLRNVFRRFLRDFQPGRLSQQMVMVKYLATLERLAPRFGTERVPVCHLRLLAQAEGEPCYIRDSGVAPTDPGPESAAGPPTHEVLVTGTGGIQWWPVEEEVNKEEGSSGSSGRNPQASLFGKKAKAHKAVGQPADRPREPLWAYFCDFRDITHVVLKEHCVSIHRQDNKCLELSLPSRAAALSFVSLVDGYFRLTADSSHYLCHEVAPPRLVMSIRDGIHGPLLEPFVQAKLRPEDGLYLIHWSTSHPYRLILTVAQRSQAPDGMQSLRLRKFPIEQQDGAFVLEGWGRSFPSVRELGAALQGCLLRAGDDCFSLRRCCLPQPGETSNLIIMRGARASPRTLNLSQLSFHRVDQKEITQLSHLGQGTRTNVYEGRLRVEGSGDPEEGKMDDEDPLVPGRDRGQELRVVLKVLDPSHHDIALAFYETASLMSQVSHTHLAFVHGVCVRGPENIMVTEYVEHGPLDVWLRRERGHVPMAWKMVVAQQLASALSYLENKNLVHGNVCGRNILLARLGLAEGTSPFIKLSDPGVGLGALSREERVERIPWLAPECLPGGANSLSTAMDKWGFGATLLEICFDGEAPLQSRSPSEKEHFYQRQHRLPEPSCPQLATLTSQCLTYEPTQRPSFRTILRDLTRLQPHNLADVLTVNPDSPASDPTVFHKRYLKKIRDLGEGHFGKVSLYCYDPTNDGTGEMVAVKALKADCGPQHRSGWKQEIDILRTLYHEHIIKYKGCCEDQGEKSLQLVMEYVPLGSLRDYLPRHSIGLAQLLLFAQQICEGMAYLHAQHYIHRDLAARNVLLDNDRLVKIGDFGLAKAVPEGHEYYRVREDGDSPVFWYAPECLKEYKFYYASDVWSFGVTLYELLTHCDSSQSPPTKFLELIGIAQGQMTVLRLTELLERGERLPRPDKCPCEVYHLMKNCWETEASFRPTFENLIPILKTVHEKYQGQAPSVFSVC
Tyrosine-protein kinase JAK2, sequence (O60674 whole entry, the tested form may be a part): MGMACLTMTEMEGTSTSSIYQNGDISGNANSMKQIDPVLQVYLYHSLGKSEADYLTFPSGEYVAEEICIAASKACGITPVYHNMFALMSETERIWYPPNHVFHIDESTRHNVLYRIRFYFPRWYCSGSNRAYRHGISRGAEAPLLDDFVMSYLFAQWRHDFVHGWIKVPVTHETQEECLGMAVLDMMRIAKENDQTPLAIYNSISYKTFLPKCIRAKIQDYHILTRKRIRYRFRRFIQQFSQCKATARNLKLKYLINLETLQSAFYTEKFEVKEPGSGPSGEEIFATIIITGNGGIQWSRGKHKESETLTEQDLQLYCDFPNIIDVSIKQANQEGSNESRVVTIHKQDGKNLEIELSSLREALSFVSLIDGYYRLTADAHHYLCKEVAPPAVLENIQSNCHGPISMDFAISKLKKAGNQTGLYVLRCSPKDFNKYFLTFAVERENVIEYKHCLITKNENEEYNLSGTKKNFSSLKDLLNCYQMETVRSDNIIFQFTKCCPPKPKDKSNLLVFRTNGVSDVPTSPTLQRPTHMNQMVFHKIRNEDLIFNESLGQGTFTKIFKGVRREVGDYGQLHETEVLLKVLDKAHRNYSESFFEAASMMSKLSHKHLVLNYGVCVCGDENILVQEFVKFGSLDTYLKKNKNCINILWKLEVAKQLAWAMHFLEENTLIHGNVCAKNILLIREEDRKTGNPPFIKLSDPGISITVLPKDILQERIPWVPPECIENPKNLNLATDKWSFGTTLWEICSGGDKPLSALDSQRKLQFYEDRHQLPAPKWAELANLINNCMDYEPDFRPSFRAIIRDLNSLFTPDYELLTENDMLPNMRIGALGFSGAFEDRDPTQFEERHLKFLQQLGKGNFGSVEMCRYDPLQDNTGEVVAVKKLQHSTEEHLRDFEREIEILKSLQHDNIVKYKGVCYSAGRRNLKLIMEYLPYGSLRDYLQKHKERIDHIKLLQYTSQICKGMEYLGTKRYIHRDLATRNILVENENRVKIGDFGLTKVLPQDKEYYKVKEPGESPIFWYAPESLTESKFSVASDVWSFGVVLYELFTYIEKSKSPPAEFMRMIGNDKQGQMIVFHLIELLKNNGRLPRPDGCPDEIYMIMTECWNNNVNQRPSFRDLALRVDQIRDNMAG

N#CC1(c2ccc(-c3cccc4nc(NC(=O)C5CC5)cn34)cc2)CC1
> 5 µM: [1] | [2] | [3]

— ChEMBL document CHEMBL5727863, “Substituted imidazo[1,2-A]pyridin-2-ylamine compounds, and pharmaceutical compositions and methods of use thereof” (2020)
